Assay results reported in patent US20240316047A1, “INHIBITORS OF RNA HELICASE DHX9 AND USES THEREOF” (ACCENT THERAPEUTICS, INC., priority 2022, published 2024).

Target: Human recombinant DHX9 protein (Homo sapiens (Human), UniProt Q08211)
Experiment: DHX9 ATPase assay (ADP-Glo)
Type: biochemical
Settings: for IC50: read-out: DHX9 Biochemical Inflection Point

Sequence of Human recombinant DHX9 protein (Q08211 whole entry): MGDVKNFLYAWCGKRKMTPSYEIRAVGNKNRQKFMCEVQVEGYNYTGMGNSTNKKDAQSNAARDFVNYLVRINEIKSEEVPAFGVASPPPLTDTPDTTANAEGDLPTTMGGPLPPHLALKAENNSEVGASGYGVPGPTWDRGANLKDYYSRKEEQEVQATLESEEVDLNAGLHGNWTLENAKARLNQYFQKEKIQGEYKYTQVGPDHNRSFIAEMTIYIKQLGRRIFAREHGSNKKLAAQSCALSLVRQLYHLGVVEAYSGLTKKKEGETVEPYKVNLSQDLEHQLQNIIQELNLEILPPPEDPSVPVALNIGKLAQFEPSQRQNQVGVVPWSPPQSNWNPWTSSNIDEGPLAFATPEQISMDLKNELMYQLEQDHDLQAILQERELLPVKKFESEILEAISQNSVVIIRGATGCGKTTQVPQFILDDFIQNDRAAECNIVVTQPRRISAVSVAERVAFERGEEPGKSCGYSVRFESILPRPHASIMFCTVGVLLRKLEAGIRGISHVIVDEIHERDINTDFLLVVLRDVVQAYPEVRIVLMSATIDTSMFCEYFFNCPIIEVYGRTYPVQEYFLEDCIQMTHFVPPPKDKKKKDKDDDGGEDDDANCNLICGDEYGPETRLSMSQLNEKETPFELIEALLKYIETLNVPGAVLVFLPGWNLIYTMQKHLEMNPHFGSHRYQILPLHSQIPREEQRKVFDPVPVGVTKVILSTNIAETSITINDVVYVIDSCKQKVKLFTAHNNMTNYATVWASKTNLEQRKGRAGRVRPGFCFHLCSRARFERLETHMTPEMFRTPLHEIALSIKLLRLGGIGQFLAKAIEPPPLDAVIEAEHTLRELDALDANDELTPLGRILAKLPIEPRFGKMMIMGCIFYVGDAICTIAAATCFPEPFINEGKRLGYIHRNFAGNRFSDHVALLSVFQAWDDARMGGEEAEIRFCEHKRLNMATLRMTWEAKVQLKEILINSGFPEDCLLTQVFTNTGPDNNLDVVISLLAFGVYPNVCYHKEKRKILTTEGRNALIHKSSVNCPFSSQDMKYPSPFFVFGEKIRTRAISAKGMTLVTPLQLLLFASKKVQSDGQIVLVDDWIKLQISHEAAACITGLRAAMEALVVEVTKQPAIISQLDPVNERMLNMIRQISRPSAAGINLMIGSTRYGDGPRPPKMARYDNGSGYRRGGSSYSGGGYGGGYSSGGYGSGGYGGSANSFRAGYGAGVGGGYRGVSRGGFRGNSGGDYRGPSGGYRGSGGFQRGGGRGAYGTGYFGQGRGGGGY

DHX9 Biochemical Max Inhibition	IC50 [nM]	SMILES
71	9	CN1CC[C@@H](Oc2cnc(-c3cc(C(=O)Nc4cc(Cl)cc(NS(C)(=O)=O)c4)cn3CC(F)(F)F)nc2)C1 [Example 641]
67.3	19.8	CN1CC[C@H](Oc2cnc(-c3cc(C(=O)Nc4cc(Cl)cc(NS(C)(=O)=O)c4)cn3CC(F)(F)F)nc2)C1 [Example 642]
61.4	40.8	CS(=O)(=O)Nc1cc(Cl)cc(NC(=O)c2cc(C(=O)N3CC4(CNC4)C3)n(-c3ccccn3)c2)c1 [Example 643]
71.2	95	CS(=O)(=O)Nc1cc(Cl)cc(NC(=O)c2cc(C(=O)N3CCCCC3)n(-c3ccccn3)c2)c1 [Example 644]
70.8	366	CC(C)(C)OC(=O)N1CC(n2cc(C(=O)Nc3cc(Cl)cc(NS(C)(=O)=O)c3)cc2-c2ncc(F)cn2)C1 [Example 645]
66.6	7.9	CN(C)CCOc1cnc(-c2cc(C(=O)Nc3cc(Cl)cc(NS(C)(=O)=O)c3)cn2C)c(F)c1 [Example 646]
72.9		Cc1sc(C(=O)Nc2cc(Cl)cc(NS(C)(=O)=O)c2)cc1-c1ccc(P(C)(C)=O)cn1 [Example 647]
69.1	6.9	Cc1sc(C(=O)Nc2cc(Cl)cc(NS(C)(=O)=O)c2)cc1-c1ncc(P(C)(C)=O)cn1 [Example 648]
67.6	50.3	CS(=O)(=O)Nc1cc(Cl)cc(NC(=O)c2cc(C(=O)N3CCN(CC(F)(F)F)CC3)n(-c3ccccn3)c2)c1 [Example 649]
80.6	52.4	CC(C)(O)c1cc(C(=O)Nc2cc(Cl)cc(NS(C)(=O)=O)c2)cn1-c1ccccn1 [Example 650]
59.6	70.6	CS(=O)(=O)Nc1cc(Cl)cc(NC(=O)c2cc(-c3ncc(OC4CN(S(C)(=O)=O)C4)cn3)n(CC(F)(F)F)c2)c1 [Example 651]
68.1	343	CS(=O)(=O)Nc1cc(Cl)cc(NC(=O)c2cc(-c3ncc(F)cn3)n(C3CNC3)c2)c1 [Example 652]
75.7	2	Cc1sc(C(=O)Nc2cc(Cl)cc(NS(C)(=O)=O)c2)cc1-c1ncc(C(C)(O)C2CN(C)C2)cc1F (stereo not shown) [Example 653]
72.7	21.6	CS(=O)(=O)Nc1cc(Cl)cc(NC(=O)c2cc(C(=O)N3CCN(c4ccccc4)CC3)n(-c3ccccn3)c2)c1 [Example 654]
67.8	11.4	Cn1cc(C(=O)Nc2cc(Cl)cc(NS(C)(=O)=O)c2)cc1-c1ncccc1Oc1cccnc1 [Example 655]
71.3	30.7	Cc1cc(C(=O)Nc2cc(Cl)cc(NS(C)(=O)=O)c2)cn1-c1ncc(S(C)(=O)=O)cn1 [Example 656]
71.8	14.7	Cc1cc(C(=O)Nc2cc(Cl)cc(NS(C)(=O)=O)c2)cn1-c1ncc([S+](C)[O-])cn1 (stereo not shown) [Example 657]
73.1	53.9	CSc1cnc(-n2cc(C(=O)Nc3cc(Cl)cc(NS(C)(=O)=O)c3)cc2C)nc1 [Example 658]
50.7	68.8	Cc1cc(F)cc(C#N)c1-c1cc(C(=O)Nc2cc(Cl)cc(NS(C)(=O)=O)c2)cn1C [Example 659]
